According to patent US9902728B2, “Pyrrolo and pyrazolopyrimidines as ubiquitin-specific protease 7 inhibitors” (Forma Therapeutics, Inc., priority 2014, dated 2018):

Molecular target: T1, USP7 (Homo sapiens, UniProt Q93009)
T1 construct: USP7, construct USP7 (208-1102) 6*His, Viva Biotech; 6xHis (C); purchased Viva Biotech
Experiment: USP7 Assay A (Ubitquin-Rhodamine 110 Assay)
Assay type: biochemical
Settings: USP7 activity in USP7 assay A and B (table does not say which assay per compound); read-out: USP7_IC50
Outline: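 Ub-Rh110 cleavage in 20 mM Tris-HCl pH 8.0 with 1 mM GSH, 0.03% BGG, 0.01% Triton X-100; compound preincubated with enzyme 30 min before substrate.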

T1 sequence (Q93009 208-1102): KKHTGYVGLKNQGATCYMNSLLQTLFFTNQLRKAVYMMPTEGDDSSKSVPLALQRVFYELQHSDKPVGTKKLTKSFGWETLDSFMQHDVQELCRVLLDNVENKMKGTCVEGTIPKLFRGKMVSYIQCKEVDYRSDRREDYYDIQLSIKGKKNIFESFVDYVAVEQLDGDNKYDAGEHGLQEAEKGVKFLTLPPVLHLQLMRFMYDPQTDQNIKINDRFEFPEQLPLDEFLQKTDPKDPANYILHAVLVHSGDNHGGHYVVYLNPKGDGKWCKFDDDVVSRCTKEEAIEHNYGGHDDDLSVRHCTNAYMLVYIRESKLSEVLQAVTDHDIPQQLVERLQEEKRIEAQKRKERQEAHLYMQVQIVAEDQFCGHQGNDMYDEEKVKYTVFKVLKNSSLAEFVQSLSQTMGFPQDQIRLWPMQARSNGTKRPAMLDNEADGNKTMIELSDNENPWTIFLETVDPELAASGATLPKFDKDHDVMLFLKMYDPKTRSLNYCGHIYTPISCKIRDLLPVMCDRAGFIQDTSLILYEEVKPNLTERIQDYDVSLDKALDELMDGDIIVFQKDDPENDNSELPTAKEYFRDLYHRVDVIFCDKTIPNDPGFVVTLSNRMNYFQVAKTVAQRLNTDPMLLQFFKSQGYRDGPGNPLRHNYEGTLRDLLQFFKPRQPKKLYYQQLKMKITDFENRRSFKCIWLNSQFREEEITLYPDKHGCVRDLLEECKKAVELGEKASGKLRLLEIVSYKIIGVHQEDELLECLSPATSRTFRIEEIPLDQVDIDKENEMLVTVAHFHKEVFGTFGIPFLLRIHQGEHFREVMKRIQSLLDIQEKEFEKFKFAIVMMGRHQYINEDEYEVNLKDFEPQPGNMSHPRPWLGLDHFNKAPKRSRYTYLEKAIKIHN

First: O=C(c1ccc(F)cc1)N1CCC(O)(Cn2cnc3c(cnn3-c3ccc(N4CCN5CCCC[C@@H]5C4)cc3)c2=O)CC1 [Compound I-484, (R)-5-((1-(4-fluorobenzoyl)-4-hydroxypiperidin-4-yl)methyl)-1-(4-(octahydro-2H-pyrido[1,2-a]pyrazin-2-yl)phenyl)-1,5-dihydro-4H-pyrazolo[3,4-d]pyrimidin-4-one]
Second: O=C(c1ccc(N2CCN3CCCC3C2)cc1)N1CCC(O)(Cn2cnc3c(cnn3-c3ccc(F)cc3)c2=O)CC1 (stereo not shown) [Compound I-487]
The IC50 of the first is lower: < 200 nM for the first, 1000 to 10000 nM for the second.

`O=C(OCCCN1CCCC1)N1CCC(O)(Cn2cnc3c(cnn3-c3ccc(F)cc3)c2=O)CC1` [Compound I-486, 3-(Pyrrolidin-1-yl)propyl 4-((1-(4-fluorophenyl)-4-oxo-1,4-dihydro-5H-pyrazolo[3,4-d]pyrimidin-5-yl)methyl)-4-hydroxypiperidine-1-carboxylate] and `O=C(C1CCC(Oc2ccccn2)CC1)N1CCC(O)(Cn2cnc3c(cnn3-c3ccc(F)cc3)c2=O)CC1` (stereo not shown) [Compound I-544] fall in the same range of IC50: 1000 to 10000 nM for the first, 1000 to 10000 nM for the second.

First: Cc1cnn(-c2ccc(-n3ncc4c(=O)n(CC5(O)CCN(C(=O)c6cnc(C)o6)CC5)cnc43)cc2)c1 [Compound I-488]
Second: O=C(c1ccnn1Cc1ccccc1)N1CCC(O)(Cn2cnc3c(cnn3-c3ccc(F)cc3)c2=O)CC1 [Compound I-541]
The IC50 of the first is lower: < 200 nM for the first, 200 to 1000 nM for the second.

`CC1(C(=O)N2CCC(O)(Cn3cnc4c(cnn4-c4ccc(-c5cnn(C(F)F)c5)cc4)c3=O)CC2)CC1` [Compound I-489] and `CC1(C(=O)N2CCC(O)(Cn3cnc4c(cnn4-c4ccc(N5CCC6(CC5)CC(F)(F)C6)cc4)c3=O)CC2)CC1` [Compound I-490] fall in the same range of IC50: 200 to 1000 nM for the first, 200 to 1000 nM for the second.

Compared with `O=C(C[C@@H](C(F)F)n1ccc(F)n1)N1CCC(O)(Cn2cnc3c(cnn3-c3ccc(F)cc3)c2=O)CC1` [Compound I-542], `O=C(C[C@H](C(F)F)n1ccc(F)n1)N1CCC(O)(Cn2cnc3c(cnn3-c3ccc(F)cc3)c2=O)CC1` [Compound I-543] is higher in IC50: < 200 nM for the first, 200 to 1000 nM for the second.

First: O=C(C1CCC(Oc2ccccn2)CC1)N1CCC(O)(Cn2cnc3c(cnn3-c3ccc(F)cc3)c2=O)CC1 (stereo not shown) [Compound I-545]
Second: O=C(c1ccc(Oc2ccccn2)cn1)N1CCC(O)(Cn2cnc3c(cnn3-c3ccc(F)cc3)c2=O)CC1 [Compound I-547]
The IC50 of the first is lower: 200 to 1000 nM for the first, 1000 to 10000 nM for the second.

`O=C(C1CCC(Oc2ccccn2)CC1)N1CCC(O)(Cn2cnc3c(cnn3-c3ccc(F)cc3)c2=O)CC1` (stereo not shown) [Compound I-546] was tested, and the IC50 was 200 to 1000 nM.

Same assay, conditions: USP7 assay A and B (table does not say which assay per compound); read-out: USP7_IC50

First: O=C(c1ccc(N2CCOCC2)nc1)N1CCC(O)(Cn2cnc3c(cnn3-c3ccc(F)cc3)c2=O)CC1 [Compound I-419]
Second: O=C(c1ccc(C(F)(F)F)nc1)N1CCC(O)(Cn2cnc3c(cnn3-c3ccc(F)cc3)c2=O)CC1 [Compound I-422]
The IC50 of the first is lower: 1000 to 10000 nM for the first, > 10000 nM for the second. The first is the more potent here.

First: O=C(N1CCC(O)(Cn2cnc3c(cnn3-c3ccc(F)cc3)c2=O)CC1)C12CC(C(F)(F)F)(C1)C2 [Compound I-423]
Second: CC1(C(=O)N2CCC(O)(Cn3cnc4c(cnn4-c4ccc(F)cc4)c3=O)CC2)CCC1 [Compound I-464]
The IC50 of the first is higher: 1000 to 10000 nM for the first, 200 to 1000 nM for the second.

Compared with `CNC(=O)N1CCC(O)(Cn2cnc3c(cnn3-c3ccc(-c4ccccc4)cc3)c2=O)CC1` [Compound I-425], `CN(C)C(=O)N1CCC(O)(Cn2cnc3c(cnn3-c3ccc(Oc4ccccc4)cc3)c2=O)CC1` [Compound I-500] is higher in IC50: 1000 to 10000 nM for the first, > 10000 nM for the second.

`O=C(C1CC1)N1CCC(O)(Cn2cnc3c(cnn3-c3ccc(CN4CCCCC4)cc3)c2=O)CC1` [Compound I-431] and `O=C(C1CC1)N1CCC(O)(Cn2cnc3c(cnn3-c3ccc(CN4CCC5(CCOCC5)C4)cc3)c2=O)CC1` [Compound I-443] fall in the same range of IC50: 1000 to 10000 nM for the first, 1000 to 10000 nM for the second.

`COCCN(C)Cc1ccc(-n2ncc3c(=O)n(CC4(O)CCN(C(=O)C5CC5)CC4)cnc32)cc1` [Compound I-434] and `COCCN(C)Cc1cccc(-n2ncc3c(=O)n(CC4(O)CCN(C(=O)C5CC5)CC4)cnc32)c1` [Compound I-449] fall in the same range of IC50: 1000 to 10000 nM for the first, 1000 to 10000 nM for the second.

`O=C(C1CC1)N1CCC(O)(Cn2cnc3c(cnn3-c3ccc(CN4CCc5ccccc5C4)cc3)c2=O)CC1` [Compound I-437] and `O=C(c1ccc(CN2CCCC2)cc1)N1CCC(O)(Cn2cnc3c(cnn3-c3ccc(F)cc3)c2=O)CC1` [Compound I-529] fall in the same range of IC50: 1000 to 10000 nM for the first, 1000 to 10000 nM for the second.

`CCc1ccc(CN(C)Cc2ccc(-n3ncc4c(=O)n(CC5(O)CCN(C(=O)C6CC6)CC5)cnc43)cc2)cn1` [Compound I-440] and `CN(C)C(=O)Nc1ccc(-n2ncc3c(=O)n(CC4(O)CCN(C(=O)C5CC5)CC4)cnc32)cc1` [Compound I-492] fall in the same range of IC50: 1000 to 10000 nM for the first, 1000 to 10000 nM for the second.

Compared with `N#CC1CCN(Cc2cccc(-n3ncc4c(=O)n(CC5(O)CCN(C(=O)C6CC6)CC5)cnc43)c2)CC1` [Compound I-446], `O=C(C1CC1)N1CCC(O)(Cn2cnc3c(cnn3-c3cccc(N4CCNCC4)c3)c2=O)CC1` [Compound I-498] is lower in IC50: 1000 to 10000 nM for the first, < 200 nM for the second.

`CC(C)CN(C)Cc1cccc(-n2ncc3c(=O)n(CC4(O)CCN(C(=O)C5CC5)CC4)cnc32)c1` [Compound I-452] and `CNC(=O)Nc1cccc(-n2ncc3c(=O)n(CC4(O)CCN(C(=O)C5CC5)CC4)cnc32)c1` [Compound I-507] fall in the same range of IC50: 1000 to 10000 nM for the first, 1000 to 10000 nM for the second.

Compared with `O=C(c1ccc(C2(O)CC2)cc1)N1CCC(O)(Cn2cnc3c(cnn3-c3ccccc3)c2=O)CC1` [Compound I-467], `O=C(c1ccc(-n2cccn2)cc1)N1CCC(O)(Cn2cnc3c(cnn3-c3ccc(F)cc3)c2=O)CC1` [Compound I-535] is lower in IC50: 1000 to 10000 nM for the first, 200 to 1000 nM for the second.

`O=C(c1ccccc1)N1CC[C@](O)(Cn2cnc3c(cnn3-c3ccccc3)c2=O)[C@H](F)C1` [Compound I-469] and `O=C(c1ccc(Oc2ccccn2)cc1)N1CCC(O)(Cn2cnc3c(cnn3-c3ccc(F)cc3)c2=O)CC1` [Compound I-538] fall in the same range of IC50: 1000 to 10000 nM for the first, 1000 to 10000 nM for the second.

`CN(C)C(=O)N1CCC(O)(Cn2cnc3c(cnn3-c3ccc(F)c(-c4ccc(F)cc4)c3)c2=O)CC1` [Compound I-475] and `CN1CCN(c2ccc(C(=O)N3CCC(O)(Cn4cnc5c(cnn5-c5ccc(F)cc5)c4=O)CC3)cc2F)CC1` [Compound I-537] fall in the same range of IC50: 1000 to 10000 nM for the first, 1000 to 10000 nM for the second.

First: CC1(C)CC(NC(=O)N2CCC(O)(Cn3cnc4c(cnn4-c4ccc(F)cc4)c3=O)CC2)C1 [Compound I-482]
Second: Cc1ncc(C(=O)N2CCC(O)(Cn3cnc4c(cnn4-c4ccc(F)cc4)c3=O)CC2)o1 [Compound I-531]
The IC50 of the first is higher: > 10000 nM for the first, 1000 to 10000 nM for the second.

`O=C(C1CC1)N1CCC(O)(Cn2cnc3c(cnn3-c3ccc(N4CCNCC4)cc3)c2=O)CC1` [Compound I-499] and `CN(C)C(=O)N1CCC(O)(Cn2cnc3c(cnn3-c3ccc(N4CCC5(CCNCC5)CC4)cc3)c2=O)CC1` [Compound I-508] fall in the same range of IC50: 200 to 1000 nM for the first, 200 to 1000 nM for the second.

`CNS(=O)(=O)Nc1ccc(-n2ncc3c(=O)n(CC4(O)CCN(C(=O)C5CC5)CC4)cnc32)cc1` [Compound I-504, 5-[(1-Cyclopropanecarbonyl-4-hydroxypiperidin-4-yl)methyl]-1-{4-[(methylsulfamoyl)amino]phenyl}-1H,4H,5H-pyrazolo[3,4-d]pyrimidin-4-one] and `CN(C)S(=O)(=O)Nc1ccc(-n2ncc3c(=O)n(CC4(O)CCN(C(=O)C5CC5)CC4)cnc32)cc1` [Compound I-505] fall in the same range of IC50: 1000 to 10000 nM for the first, 1000 to 10000 nM for the second.

First: CNC(=O)Nc1ccc(-n2ncc3c(=O)n(CC4(O)CCN(C(=O)C5CC5)CC4)cnc32)cc1 [Compound I-506]
Second: CC(CC(=O)N1CCC(O)(Cn2cnc3c(cnn3-c3ccc(F)cc3)c2=O)CC1)N1CC2CCCC2C1 (stereo not shown) [Compound I-523]
The IC50 of the first is lower: 1000 to 10000 nM for the first, > 10000 nM for the second.

First: O=C(c1cccc(CN2CCCC2)c1)N1CCC(O)(Cn2cnc3c(cnn3-c3ccc(F)cc3)c2=O)CC1 [Compound I-510]
Second: O=C(c1cnc(N2CCCCC2)o1)N1CCC(O)(Cn2cnc3c(cnn3-c3ccc(F)cc3)c2=O)CC1 [Compound I-536]
The IC50 of the first is higher: > 10000 nM for the first, 1000 to 10000 nM for the second. The second is the more potent here.

`CC(CC(=O)N1CCC(O)(Cn2cnc3c(cnn3-c3ccc(F)cc3)c2=O)CC1)n1cccn1` (stereo not shown) [Compound I-513] and `C[C@@H](CC(=O)N1CCC(O)(Cn2cnc3c(cnn3-c3ccc(F)cc3)c2=O)CC1)n1cccn1` [Compound I-514] fall in the same range of IC50: 200 to 1000 nM for the first, 200 to 1000 nM for the second.

`C[C@H](CC(=O)N1CCC(O)(Cn2cnc3c(cnn3-c3ccc(F)cc3)c2=O)CC1)n1cccn1` [Compound I-515] and `O=C(C[C@H](C(F)F)n1cccn1)N1CCC(O)(Cn2cnc3c(cnn3-c3ccc(F)cc3)c2=O)CC1` [Compound I-517] fall in the same range of IC50: 1000 to 10000 nM for the first, 1000 to 10000 nM for the second.

Compared with `O=C(C[C@@H](C(F)F)n1cccn1)N1CCC(O)(Cn2cnc3c(cnn3-c3ccc(F)cc3)c2=O)CC1` [Compound I-518], `C[C@H](CC(=O)N1CCC(O)(Cn2cnc3c(cnn3-c3ccc(F)cc3)c2=O)CC1)n1cc2c(n1)CCC2` [Compound I-520] is higher in IC50: < 200 nM for the first, > 10000 nM for the second. The first is the more potent here.

`C[C@@H](CC(=O)N1CCC(O)(Cn2cnc3c(cnn3-c3ccc(F)cc3)c2=O)CC1)n1ncc2c1CCC2` [Compound I-521] and `C[C@H](CC(=O)N1CCC(O)(Cn2cnc3c(cnn3-c3ccc(F)cc3)c2=O)CC1)n1ncc2c1CCC2` [Compound I-522] cannot be ordered by IC50: > 10000 nM for the first, > 10000 nM for the second.

Compared with `C[C@@H](CC(=O)N1CCC(O)(Cn2cnc3c(cnn3-c3ccc(F)cc3)c2=O)CC1)N1CC2CCCC2C1` (stereo partly shown) [Compound I-524], `C[C@H](CC(=O)N1CCC(O)(Cn2cnc3c(cnn3-c3ccc(F)cc3)c2=O)CC1)N1CC2CCCC2C1` (stereo partly shown) [Compound I-525] is higher in IC50: 1000 to 10000 nM for the first, > 10000 nM for the second.

`CC(O)(c1ccc(C(=O)N2CCC(O)(Cn3cnc4c(cnn4-c4ccc(F)cc4)c3=O)CC2)cc1)C(F)(F)F` (stereo not shown) [Compound I-526] and `C[C@@](O)(c1ccc(C(=O)N2CCC(O)(Cn3cnc4c(cnn4-c4ccc(F)cc4)c3=O)CC2)cc1)C(F)(F)F` [Compound I-527] fall in the same range of IC50: 1000 to 10000 nM for the first, 1000 to 10000 nM for the second.

`CN1CCC(Oc2ccc(C(=O)N3CCC(O)(Cn4cnc5c(cnn5-c5ccc(F)cc5)c4=O)CC3)cc2)CC1` [Compound I-533] and `O=C(c1ccc(Oc2ncccn2)cc1)N1CCC(O)(Cn2cnc3c(cnn3-c3ccc(F)cc3)c2=O)CC1` [Compound I-539] fall in the same range of IC50: 1000 to 10000 nM for the first, 1000 to 10000 nM for the second.
